PubChem BioAssay (NCI)
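Protocol summary: plate cells (96-well), add compound at 5 concentrations, incubate 48 h, interpolate endpoints linearly. TGI denotes the concentration required for complete inhibition of growth.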

Legend:
Assay in all cases: growth of human tumour cells (NCI), 48 h
[1] = test system: 786-0 renal
[2] = test system: A498 renal
[3] = test system: A549 NSCLC
[4] = test system: ACHN renal
[5] = test system: CAKI-1 renal
[6] = test system: CCRF-CEM leukemia
[7] = test system: COLO 205 colon
[8] = test system: DLD-1 colon
[9] = test system: DMS 114 small cell lung
[10] = test system: DMS 273 small cell lung
[11] = test system: EKVX NSCLC
[12] = test system: HCC-2998 colon
[13] = test system: HCT-116 colon
[14] = test system: HCT-15 colon
[15] = test system: HL-60(TB) leukemia
[16] = test system: HOP-18 NSCLC
[17] = test system: HOP-62 NSCLC
[18] = test system: IGROV1 ovarian
[19] = test system: K-562 leukemia
[20] = test system: KM12 colon
[21] = test system: KM20L2 colon
[22] = test system: LXFL 529 NSCLC
[23] = test system: M14 melanoma
[24] = test system: M19-MEL melanoma
[25] = test system: MALME-3M melanoma
[26] = test system: MOLT-4 leukemia
[27] = test system: NCI-H23 lung
[28] = test system: NCI-H460 lung
[29] = test system: NCI-H522 lung
[30] = test system: OVCAR-3 ovarian
[31] = test system: OVCAR-4 ovarian
[32] = test system: OVCAR-8 ovarian
[33] = test system: RPMI-8226 leukemia
[34] = test system: RXF 393 renal
[35] = test system: RXF-631 renal
[36] = test system: SF-268 CNS
[37] = test system: SF-295 CNS
[38] = test system: SF-539 CNS
[39] = test system: SK-MEL-2 melanoma
[40] = test system: SK-MEL-28 melanoma
[41] = test system: SK-MEL-5 melanoma
[42] = test system: SK-OV-3 ovarian
[43] = test system: SN12C renal
[44] = test system: SNB-19 CNS
[45] = test system: SNB-75 CNS
[46] = test system: SNB-78 CNS
[47] = test system: SW-620 colon
[48] = test system: TK-10 renal
[49] = test system: U251 CNS
[50] = test system: UACC-257 melanoma
[51] = test system: UACC-62 melanoma
[52] = test system: UO-31 renal
[53] = test system: XF 498 CNS
[54] = test system: HOP-92 NSCLC
[55] = test system: HT29 colon
[56] = test system: LOX IMVI melanoma
[57] = test system: OVCAR-5 ovarian
[58] = test system: SR leukemia
[59] = test system: NCI-H226 lung

With O=C(O)C1(C(=O)O)CC1 the TGI [1] was > 100 µM, the TGI [2] was > 100 µM and the TGI [3] was > 100 µM. For the same molecule, the TGI [4] was > 100 µM, the TGI [5] was > 100 µM and the TGI [6] was > 100 µM. For the same molecule, the TGI [7] was > 100 µM, the TGI [8] was > 100 µM and the TGI [9] was > 100 µM. For the same molecule, the TGI [10] was > 100 µM, the TGI [11] was > 100 µM and the TGI [12] was > 100 µM. For the same molecule, the TGI [13] was > 100 µM, the TGI [14] was > 100 µM and the TGI [15] was > 100 µM. For the same molecule, the TGI [16] was > 100 µM, the TGI [17] was > 100 µM and the TGI [18] was > 100 µM. The TGI [19] was > 100 µM, the TGI [20] was > 100 µM and the TGI [21] was > 100 µM. For the same molecule, the TGI [22] was > 100 µM, the TGI [23] was > 100 µM and the TGI [24] was > 100 µM. For the same molecule, the TGI [25] was > 100 µM, the TGI [26] was > 100 µM and the TGI [27] was > 100 µM. The TGI [28] was > 100 µM, the TGI [29] was > 100 µM and the TGI [30] was > 100 µM. For the same molecule, the TGI [31] was > 100 µM, the TGI [32] was > 100 µM and the TGI [33] was > 100 µM. The TGI [34] was > 100 µM, the TGI [35] was > 100 µM and the TGI [36] was > 100 µM. The TGI [37] was > 100 µM, the TGI [38] was > 100 µM and the TGI [39] was > 100 µM. The TGI [40] was > 100 µM, the TGI [41] was > 100 µM and the TGI [42] was > 100 µM. For the same molecule, the TGI [43] was > 100 µM, the TGI [44] was > 100 µM and the TGI [45] was > 100 µM. The TGI [46] was > 100 µM, the TGI [47] was > 100 µM and the TGI [48] was > 100 µM. The TGI [49] was > 100 µM, the TGI [50] was > 100 µM and the TGI [51] was > 100 µM. For the same molecule, the TGI [52] was > 100 µM and the TGI [53] was > 100 µM.
With COc1ccc(NCC#N)cc1 the TGI [1] was 75.8 µM, the TGI [2] was > 100 µM and the TGI [3] was > 100 µM. For the same molecule, the TGI [4] was > 100 µM, the TGI [6] was > 100 µM and the TGI [7] was > 100 µM. For the same molecule, the TGI [8] was > 100 µM, the TGI [9] was > 100 µM and the TGI [10] was > 100 µM. The TGI [11] was > 100 µM, the TGI [12] was > 100 µM and the TGI [13] was > 100 µM. The TGI [14] was > 100 µM, the TGI [15] was > 100 µM and the TGI [16] was > 100 µM. The TGI [54] was > 100 µM, the TGI [55] was > 100 µM and the TGI [18] was > 100 µM. The TGI [19] was > 100 µM, the TGI [20] was > 100 µM and the TGI [21] was > 100 µM. The TGI [56] was > 100 µM, the TGI [22] was > 100 µM and the TGI [23] was > 100 µM. For the same molecule, the TGI [24] was > 100 µM, the TGI [25] was > 100 µM and the TGI [26] was > 100 µM. The TGI [27] was > 100 µM, the TGI [28] was > 100 µM and the TGI [29] was > 100 µM. For the same molecule, the TGI [30] was > 100 µM, the TGI [57] was > 100 µM and the TGI [32] was > 100 µM. For the same molecule, the TGI [33] was > 100 µM, the TGI [34] was > 100 µM and the TGI [35] was > 100 µM. For the same molecule, the TGI [36] was > 100 µM, the TGI [37] was > 100 µM and the TGI [38] was > 100 µM. For the same molecule, the TGI [39] was > 100 µM, the TGI [40] was > 100 µM and the TGI [41] was > 100 µM. The TGI [42] was > 100 µM, the TGI [43] was > 100 µM and the TGI [44] was > 100 µM. For the same molecule, the TGI [45] was > 100 µM, the TGI [46] was > 100 µM and the TGI [58] was > 100 µM. The TGI [47] was > 100 µM, the TGI [48] was > 100 µM and the TGI [49] was > 100 µM. For the same molecule, the TGI [50] was > 100 µM, the TGI [51] was > 100 µM and the TGI [52] was > 100 µM. For the same molecule, the TGI [53] was > 100 µM.
Cc1ccc(Nc2nc3c(s2)C(=O)c2ccccc2C3=O)cc1 gave a TGI [1] of 3.37 µM, a TGI [2] of 30.9 µM and a TGI [3] of 4.86 µM. It also gave a TGI [4] of 3.21 µM, a TGI [5] of 3 µM and a TGI [6] of 5.04 µM. It also gave a TGI [7] of 26.9 µM, a TGI [8] of 4.26 µM and a TGI [9] of 3.28 µM. For the same molecule, the TGI [10] was 3.75 µM, the TGI [11] was 16 µM and the TGI [12] was 3.58 µM. The TGI [14] was 4.29 µM, the TGI [15] was 0.602 µM and the TGI [16] was 3.19 µM. It also gave a TGI [17] of 20 µM, a TGI [54] of 14.3 µM and a TGI [55] of 11.2 µM. It also gave a TGI [18] of 3.73 µM, a TGI [19] of 7.19 µM and a TGI [20] of 3.44 µM. It also gave a TGI [21] of 38.9 µM, a TGI [56] of 3.11 µM and a TGI [22] of 3 µM. The TGI [23] was 3.25 µM, the TGI [24] was 1.05 µM and the TGI [25] was 3.39 µM. The TGI [26] was 3.83 µM, the TGI [59] was 33.9 µM and the TGI [27] was 4.33 µM. For the same molecule, the TGI [29] was 3.25 µM, the TGI [30] was 4.87 µM and the TGI [31] was 2.89 µM. For the same molecule, the TGI [57] was 3.5 µM, the TGI [32] was 5.07 µM and the TGI [33] was 3.74 µM. For the same molecule, the TGI [35] was 3.8 µM, the TGI [36] was 5.66 µM and the TGI [37] was 2.99 µM. It also gave a TGI [38] of 17.7 µM, a TGI [39] of 3.94 µM and a TGI [40] of 2.99 µM. For the same molecule, the TGI [41] was 3.43 µM, the TGI [42] was 40.1 µM and the TGI [43] was 3.4 µM. The TGI [44] was 3.33 µM, the TGI [45] was 5.03 µM and the TGI [46] was 5.82 µM. It also gave a TGI [48] of 18.9 µM, a TGI [49] of 3.42 µM and a TGI [50] of 3.2 µM. It also gave a TGI [51] of 3.92 µM, a TGI [52] of 4.12 µM and a TGI [53] of 3.76 µM.
